The numbers were not newly measured in patent publication US20040071803A1, “Process for preparation of anti-diabetic compositions from banyan bark” (priority 2002, published 2004), which cites them from elsewhere.

Series [1] has as its system alloxan induced diabetic rats. The conditions noted are these: single dose of 250 mg/kg or long term 100 mg/Kg/day; mild but not severe diabetes (Cherian et. al. 1992).

For `CC1OC(Oc2cc3c(O)cc(O)cc3[o+]c2-c2ccc(O)cc2)C(O)C(O)C1O` (stereo not drawn) [pelargonidin 3-0-α-rhamnoside], in series [1], the “Antidiabetic effect in alloxan induced diabetic rats” value is recorded as “antidiabetic effect”.
As to “Leucocyanidin 3-0-β D-galactosyl cellobioside”, the “Antidiabetic effect in alloxan induced diabetic rats” value in series [1] is on record as “antidiabetic effect”.
In the case of bengalinoside, in the series with alloxan diabetic rabbits (fasting blood glucose (FBG) of 250 mg/dl or above (Augusti 1975)), the “Effect on severely diabetic rabbits” value was “did not have any effect”. In the series with alloxan diabetic rabbits (normal and mildly diabetic rabbits (Augusti 1975)), the “Hypoglycemic activity relative to tolbutamide” value is “half as active as tolbutamide”.
